#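 Dose response: 5 concentrations. Exposure: 48 h. Format: 96-well plates. Endpoint: linear interpolation; highest concentration if not reached. TGI denotes the concentration required for complete inhibition of growth.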
# How the values were obtained:
# Test in all cases: NCI tumour cell line growth inhibition, 48 h
# 786-0 renal = system: 786-0 renal
# A498 renal = system: A498 renal
# A549 NSCLC = system: A549 NSCLC
# ACHN renal = system: ACHN renal
# BT-549 breast = system: BT-549 breast
# CAKI-1 renal = system: CAKI-1 renal
# CCRF-CEM leukemia = system: CCRF-CEM leukemia
# DU-145 prostate = system: DU-145 prostate
# EKVX NSCLC = system: EKVX NSCLC
# HCC-2998 colon = system: HCC-2998 colon
# HCT-116 colon = system: HCT-116 colon
# HCT-15 colon = system: HCT-15 colon
# HL-60(TB) leukemia = system: HL-60(TB) leukemia
# HOP-62 NSCLC = system: HOP-62 NSCLC
# HOP-92 NSCLC = system: HOP-92 NSCLC
# HS 578T breast = system: HS 578T breast
# HT29 colon = system: HT29 colon
# IGROV1 ovarian = system: IGROV1 ovarian
# K-562 leukemia = system: K-562 leukemia
# KM12 colon = system: KM12 colon
# LOX IMVI melanoma = system: LOX IMVI melanoma
# M14 melanoma = system: M14 melanoma
# MALME-3M melanoma = system: MALME-3M melanoma
# MCF7 breast = system: MCF7 breast
# MDA-MB-231 breast = system: MDA-MB-231 breast
# MDA-MB-435 = system: MDA-MB-435
# MDA-N = system: MDA-N
# MOLT-4 leukemia = system: MOLT-4 leukemia
# NCI-H226 lung = system: NCI-H226 lung
# NCI-H23 lung = system: NCI-H23 lung
# NCI-H460 lung = system: NCI-H460 lung
# NCI-H522 lung = system: NCI-H522 lung
# NCI/ADR-RES ovarian = system: NCI/ADR-RES ovarian
# OVCAR-3 ovarian = system: OVCAR-3 ovarian
# OVCAR-4 ovarian = system: OVCAR-4 ovarian
# OVCAR-5 ovarian = system: OVCAR-5 ovarian
# OVCAR-8 ovarian = system: OVCAR-8 ovarian
# RPMI-8226 leukemia = system: RPMI-8226 leukemia
# RXF 393 renal = system: RXF 393 renal
# SF-268 CNS = system: SF-268 CNS
# SF-539 CNS = system: SF-539 CNS
# SK-MEL-2 melanoma = system: SK-MEL-2 melanoma
# SK-MEL-28 melanoma = system: SK-MEL-28 melanoma
# SK-MEL-5 melanoma = system: SK-MEL-5 melanoma
# SK-OV-3 ovarian = system: SK-OV-3 ovarian
# SN12C renal = system: SN12C renal
# SNB-19 CNS = system: SNB-19 CNS
# SNB-75 CNS = system: SNB-75 CNS
# SR leukemia = system: SR leukemia
# SW-620 colon = system: SW-620 colon
# T-47D breast = system: T-47D breast
# TK-10 renal = system: TK-10 renal
# U251 CNS = system: U251 CNS
# UACC-257 melanoma = system: UACC-257 melanoma
# UACC-62 melanoma = system: UACC-62 melanoma
# UO-31 renal = system: UO-31 renal
# COLO 205 colon = system: COLO 205 colon
# SF-295 CNS = system: SF-295 CNS
smiles,measurement,setting,value
COc1ccc(N(C)C(=O)N(C)c2ccc([N+](=O)[O-])cc2)cc1,TGI,786-0 renal,> 100 µM
same,TGI,A498 renal,> 100 µM
same,TGI,A549 NSCLC,> 100 µM
same,TGI,ACHN renal,> 100 µM
same,TGI,BT-549 breast,> 100 µM
same,TGI,CAKI-1 renal,> 100 µM
same,TGI,CCRF-CEM leukemia,> 100 µM
same,TGI,DU-145 prostate,> 100 µM
same,TGI,EKVX NSCLC,> 100 µM
same,TGI,HCC-2998 colon,> 100 µM
same,TGI,HCT-116 colon,> 100 µM
same,TGI,HCT-15 colon,> 100 µM
same,TGI,HL-60(TB) leukemia,> 100 µM
same,TGI,HOP-62 NSCLC,> 100 µM
same,TGI,HOP-92 NSCLC,> 100 µM
same,TGI,HS 578T breast,41.3 µM
same,TGI,HT29 colon,> 100 µM
same,TGI,IGROV1 ovarian,> 100 µM
same,TGI,K-562 leukemia,> 100 µM
same,TGI,KM12 colon,91.6 µM
same,TGI,LOX IMVI melanoma,> 100 µM
same,TGI,M14 melanoma,> 100 µM
same,TGI,MALME-3M melanoma,> 100 µM
same,TGI,MCF7 breast,> 100 µM
same,TGI,MDA-MB-231 breast,> 100 µM
same,TGI,MDA-MB-435,18.6 µM
same,TGI,MDA-N,24.2 µM
same,TGI,MOLT-4 leukemia,> 100 µM
same,TGI,NCI-H226 lung,> 100 µM
same,TGI,NCI-H23 lung,> 100 µM
same,TGI,NCI-H460 lung,> 100 µM
same,TGI,NCI-H522 lung,> 100 µM
same,TGI,NCI/ADR-RES ovarian,68.4 µM
same,TGI,OVCAR-3 ovarian,84.2 µM
same,TGI,OVCAR-4 ovarian,> 100 µM
same,TGI,OVCAR-5 ovarian,> 100 µM
same,TGI,OVCAR-8 ovarian,> 100 µM
same,TGI,RPMI-8226 leukemia,> 100 µM
same,TGI,RXF 393 renal,76.2 µM
same,TGI,SF-268 CNS,> 100 µM
same,TGI,SF-539 CNS,96.6 µM
same,TGI,SK-MEL-2 melanoma,45.3 µM
same,TGI,SK-MEL-28 melanoma,> 100 µM
same,TGI,SK-MEL-5 melanoma,> 100 µM
same,TGI,SK-OV-3 ovarian,91.5 µM
same,TGI,SN12C renal,> 100 µM
same,TGI,SNB-19 CNS,> 100 µM
same,TGI,SNB-75 CNS,> 100 µM
same,TGI,SR leukemia,> 100 µM
same,TGI,SW-620 colon,> 100 µM
same,TGI,T-47D breast,> 100 µM
same,TGI,TK-10 renal,73.3 µM
same,TGI,U251 CNS,> 100 µM
same,TGI,UACC-257 melanoma,> 100 µM
same,TGI,UACC-62 melanoma,> 100 µM
same,TGI,UO-31 renal,> 100 µM
Cc1cccc2c1[nH]c1[nH]c(=O)[nH]c(=O)c12,TGI,786-0 renal,> 100 µM
same,TGI,A498 renal,> 100 µM
same,TGI,A549 NSCLC,> 100 µM
same,TGI,ACHN renal,> 100 µM
same,TGI,BT-549 breast,> 100 µM
same,TGI,CAKI-1 renal,> 100 µM
same,TGI,CCRF-CEM leukemia,> 100 µM
same,TGI,COLO 205 colon,> 100 µM
same,TGI,DU-145 prostate,> 100 µM
same,TGI,EKVX NSCLC,> 100 µM
same,TGI,HCT-116 colon,> 100 µM
same,TGI,HCT-15 colon,> 100 µM
same,TGI,HL-60(TB) leukemia,> 100 µM
same,TGI,HOP-62 NSCLC,> 100 µM
same,TGI,HOP-92 NSCLC,> 100 µM
same,TGI,HS 578T breast,> 100 µM
same,TGI,HT29 colon,> 100 µM
same,TGI,IGROV1 ovarian,> 100 µM
same,TGI,K-562 leukemia,> 100 µM
same,TGI,KM12 colon,> 100 µM
same,TGI,LOX IMVI melanoma,> 100 µM
same,TGI,M14 melanoma,> 100 µM
same,TGI,MALME-3M melanoma,> 100 µM
same,TGI,MCF7 breast,> 100 µM
same,TGI,MDA-MB-231 breast,> 100 µM
same,TGI,MDA-MB-435,> 100 µM
same,TGI,MDA-N,> 100 µM
same,TGI,MOLT-4 leukemia,> 100 µM
same,TGI,NCI-H226 lung,> 100 µM
same,TGI,NCI-H23 lung,> 100 µM
same,TGI,NCI-H522 lung,> 100 µM
same,TGI,NCI/ADR-RES ovarian,> 100 µM
same,TGI,OVCAR-3 ovarian,> 100 µM
same,TGI,OVCAR-4 ovarian,> 100 µM
same,TGI,OVCAR-5 ovarian,> 100 µM
same,TGI,OVCAR-8 ovarian,> 100 µM
same,TGI,RPMI-8226 leukemia,> 100 µM
same,TGI,RXF 393 renal,> 100 µM
same,TGI,SF-268 CNS,> 100 µM
same,TGI,SF-295 CNS,> 100 µM
same,TGI,SF-539 CNS,> 100 µM
same,TGI,SK-MEL-2 melanoma,> 100 µM
same,TGI,SK-MEL-5 melanoma,> 100 µM
same,TGI,SK-OV-3 ovarian,> 100 µM
same,TGI,SN12C renal,> 100 µM
same,TGI,SNB-19 CNS,> 100 µM
same,TGI,SNB-75 CNS,85.5 µM
same,TGI,SR leukemia,> 100 µM
same,TGI,SW-620 colon,> 100 µM
same,TGI,T-47D breast,> 100 µM
same,TGI,TK-10 renal,> 100 µM
same,TGI,UACC-257 melanoma,> 100 µM
same,TGI,UACC-62 melanoma,> 100 µM
same,TGI,UO-31 renal,> 100 µM
